Experimental data published in publication PMC6264278, “Corydaline Inhibits Multiple Cytochrome P450 and UDP-Glucuronosyltransferase Enzyme Activities in Human Liver Microsomes” (Molecules, 2011).
Where two headings read alike, the source gives them in different places.

Molecular target: T1, CYP2C9 (Homo sapiens, UniProt P11712)
T1 construct: using pooled human liver microsomes; tissue BD Gentest Co. H161; host or cells: pooled human liver microsomes
Assay: CYP2C9 diclofenac 4-hydroxylation inhibition in pooled human liver microsomes
Assay type: in vitro ADME
Settings: for IC50: 10 μM diclofenac, mean ± SD, n = 3
Description: Phenacetin O-deethylase, coumarin 7-hydroxylase, amodiaquine N-deethylase, diclofenac 4-hydroxylase, S-mephenytoin 4-hydroxylase, bufuralol hydroxylase, and midazolam 1’-hydroxylase activities were determined as probe activities for CYP1A2, CYP2A6, CYP2C8, CYP2C9, CYP2C19, CYP2D6, and CYP3A4, respectively, using cocktail incubation and liquid chromatography-tandem mass spectrometry (LC/MS/MS). The incubation mixtures were prepared in a total volume of 200 μL, as follows: pooled human liver microsomes (0.25 mg/mL), 1.3 mM NADPH, 3.3 mM MgCl2, 50 mM potassium phosphate buffer (pH 7.4), and a cocktail of probe substrates and various concentrations of corydaline (1−200 μM). The substrates were used at concentrations approximately equal to their respective Km values: 50 μM phenacetin, 2.5 μM coumarin, 2.5 μM amodiaquine, 10 μM diclofenac, 100 μM S-mephenytoin, 5 μM bufuralol, and 2.5 μM midazolam. After a 3-min pre-incubation period at 37 °C, the reactions were initiated by addition of an NADP generating system and incubated for 20 min at 37 °C in a shaking water bath. After incubation, the reaction was stopped by placement of the tubes on ice and addition of 100 μL of ice-cold methanol containing internal standards (^13C2,^15N-acetaminophen for acetaminophen and N-desethylamodiaquine, d5-7-hydroxycoumarin for 7-hydroxycoumarin, ^13C6-4-hydroxydiclofenac for 4-hydroxydiclofenac, d3-4-hydroxy-mephenytoin for 4-hydroxymephenytoin and hydroxymidazolam, d9-1-hydroxybufuralol for 1-hydroxybufuralol). The incubation mixtures were then centrifuged at 13,000 × g for 5 min. All incubations were performed in triplicate and the mean values were used. […] The reaction was started by addition of a cocktail of CYP probe substrates.
All 7 metabolites produced from the cocktail of CYP isoform-specific substrates were simultaneously determined by LC/MS/MS [25]. The system consisted of a tandem quadrupole mass spectrometer (TSQ Quantum Access, ThermoFisher Scientific, San Jose, CA, USA) coupled with a Nanospace SI-2 LC system. Separation was performed on an Atlantis dC18 column (5 μm, 2.1 mm i.d. ×100 mm, Waters, Milford, MA, USA) using the gradient elution of a mixture of 5% methanol in 0.1% formic acid (mobile phase A) and 95% methanol in 0.1% formic acid (mobile phase B) at a flow rate of 0.25 mL/min: 10% mobile phase B for 1 min, 10% to 95% mobile phase B for 1 min, 95% mobile phase B for 5 min. The column and autosampler temperatures were 50 and 6 °C, respectively. After 1.5 min, the LC eluent was diverted from waste to the mass spectrometer fitted with the electrospray ionization (ESI) source and operated in positive ion mode. […] Quantification was performed by selected reaction monitoring (SRM) of the [M+H]^+ ion and the related product ion for each metabolite. […]
Reactions were initiated by addition of NADPH at 37 °C and stopped after 15 min by placement of the incubation tubes on ice and addition of ice-cold methanol (100 μL) containing an internal standard (2.0 μg/mL ^13C6-4-hydroxydiclofenac for diclofenac, 0.5 μg/mL d3-4-hydroxymephenytoin for mephenytoin, or 0.5 μg/mL d9-1-hydroxy-bufuralol for bufuralol). The incubation mixtures were centrifuged at 13,000 × g for 5 min, and aliquots (5 μL) of the supernatants were analyzed by LC/MS/MS. […] Aliquots (5 μL) were analyzed by LC/MS/MS. […]

T1 sequence (P11712 whole entry): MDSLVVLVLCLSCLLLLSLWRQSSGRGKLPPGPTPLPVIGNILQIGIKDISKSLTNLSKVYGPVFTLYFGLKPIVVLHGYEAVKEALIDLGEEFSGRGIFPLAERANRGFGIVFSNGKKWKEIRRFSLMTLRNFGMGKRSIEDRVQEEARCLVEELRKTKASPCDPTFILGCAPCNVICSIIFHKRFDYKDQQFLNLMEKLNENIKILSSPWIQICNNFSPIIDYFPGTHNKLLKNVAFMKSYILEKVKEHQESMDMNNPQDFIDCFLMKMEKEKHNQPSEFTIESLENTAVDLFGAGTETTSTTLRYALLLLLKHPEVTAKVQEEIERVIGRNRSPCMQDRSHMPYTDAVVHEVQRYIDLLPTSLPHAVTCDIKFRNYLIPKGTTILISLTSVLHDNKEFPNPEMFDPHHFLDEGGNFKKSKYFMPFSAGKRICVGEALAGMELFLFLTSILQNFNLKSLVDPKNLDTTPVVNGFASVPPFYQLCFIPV

In the case of `COc1cc2c(cc1OC)C1C(C)c3ccc(OC)c(OC)c3CN1CC2` (centres unmarked) [Corydaline, 2,3,9,10-tetramethoxy-13-methyl-5,8,13,13a-tetrahydro-6H-isoquino[3,2-a]isoquinoline], the “inhibition mode, CYP2C9 diclofenac 4-hydroxylation” value (Lineweaver, Dixon and secondary reciprocal plots) is reported as “noncompetitive”, the Ki (human liver microsomes, 1-10 μM diclofenac) is reported as 7.1 ± 0.4 µM and the Ki at 15 min (pH 7.4, probe diclofenac (1-10 μM), 4-hydroxylation, human liver microsomes, 1-10 μM diclofenac) is reported as 7 µM. For the same compound, the IC50 (pooled human liver microsomes (H161), read-out: IC50 no preincubation, CYP2C9 diclofenac 4-hydroxylation) was 26.2 ± 4.6 µM and the IC50 (pre-incubated 30 min with NADPH, read-out: IC50 with preincubation, CYP2C9 diclofenac 4-hydroxylation) was 30.6 ± 4.1 µM.
